From patent publication US8648066B2 (Exelixis, Inc., priority 2009, dated 2014) come the findings set out here.

The target of the experiment is mTOR/GbL/Raptor (mTORC1) (Homo sapiens, UniProt P42345). Kind of experiment: mTOR/GbL/Raptor (mTORC1) ELISA assay. The experiment is classed as biochemical. The settings on record: phosphorylation of 4E-BP1; 0.2 nM mTORC1, 10 μM ATP; read-out: IC50 in this assay (mTORC1 ELISA). Summed up: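 ELISA read-out: phospho-4E-BP1 captured on Ni-chelate plates and detected with anti-phospho antibody plus HRP-anti-IgG luminescence. The kinase step ran 120 min at ambient temperature with 0.2 nM human mTORC1, 10 µM ATP, 50 nM His-4E-BP1, 10 mM MnCl2, pH 7.2 HEPES.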

As for `CC1(C)CCc2ncnc(N3CCOc4ccc(-c5cnc(N)c(S(=O)(=O)NC6CCC6)c5)cc4C3)c2C1` [Example 427, 2-amino-N-cyclobutyl-5-[4-(6,6-dimethyl-5,6,7,8-tetrahydroquinazolin-4-yl)-2,3,4,5-tetrahydro-1,4-benzoxazepin-7-yl]pyridine-3-sulfonamide], the 50% inhibitory concentration (IC50) is 50 to 250 nM. Consider `CC1(C)CCc2ncnc(N3CCOc4ccc(-c5cnc(N6CC[C@H](N)C6)c(S(=O)(=O)N6CC[C@H](N)C6)c5)cc4C3)c2C1` [Example 306, (3S)-1-({2-[(3S)-3-aminopyrrolidin-1-yl]-5-[4-(6,6-dimethyl-5,6,7,8-tetrahydroquinazolin-4-yl)-2,3,4,5-tetrahydro-1,4-benzoxazepin-7-yl]pyridin-3-yl}sulfonyl)pyrrolidin-3-amine], for which the IC50 was 250 to 1000 nM. With `Cc1nc2ccc(-c3ccc4c(c3)CN(c3nc(CNCCF)nc5c3CC(C)(C)CC5)CCO4)cc2[nH]1` [Example 586, N-({6,6-dimethyl-4-[7-(2-methyl-1H-benzimidazol-6-yl)-2,3-dihydro-1,4-benzoxazepin-4(5H)-yl]-5,6,7,8-tetrahydroquinazolin-2-yl}methyl)-2-fluoroethanamine], the IC50 was at most 10 nM. `CCNCc1nc2c(c(N3CCOc4ccc(-c5ccc6nc(C)[nH]c6c5)cc4C3)n1)CC(C)(C)CC2` [Example 589, N-({6,6-dimethyl-4-[7-(2-methyl-1H-benzimidazol-6-yl)-2,3-dihydro-1,4-benzoxazepin-4(5H)-yl]-5,6,7,8-tetrahydroquinazolin-2-yl}methyl)ethanamine]: the half-inhibitory concentration (IC50) was at most 10 nM.

Consider `Nc1nc2ccc(-c3ccc4c(c3)CN(c3ccnc5ccccc35)CCO4)cc2[nH]1` [Example 190, 6-(4-quinolin-4-yl-2,3,4,5-tetrahydro-1,4-benzoxazepin-7-yl)-1H-benzimidazol-2-amine], for which the IC50 lay within 250 to 1000 nM. As for `Cc1nc(C)c(C(C)C)c(N2CCOc3ccc(-c4cnc5nc(C)[nH]c5c4)cc3C2)n1` [Example 491, 4-[2,6-dimethyl-5-(1-methylethyl)pyrimidin-4-yl]-7-(2-methyl-1H-imidazo[4,5-b]pyridin-6-yl)-2,3,4,5-tetrahydro-1,4-benzoxazepine], the concentration for half-maximal inhibition (IC50) is at most 10 nM. For `CC1(C)CCc2ncnc(N3CCOc4ccc(-c5cnc(N)c(S(=O)(=O)NC6CC7CCC(C6)N7)c5)cc4C3)c2C1` (stereo not shown) [Example 425, 2-amino-N-8-azabicyclo[3.2.1]oct-3-yl-5-[4-(6,6-dimethyl-5,6,7,8-tetrahydroquinazolin-4-yl)-2,3,4,5-tetrahydro-1,4-benzoxazepin-7-yl]pyridine-3-sulfonamide], the IC50 fell in the range of 10 to 50 nM. On to `COc1ccc2c(N3CCOc4ccc(-c5ccc(N)cc5)cc4C3)nc(C)nc2c1` [Example 504, 4-{4-[2-methyl-7-(methyloxy)quinazolin-4-yl]-2,3,4,5-tetrahydro-1,4-benzoxazepin-7-yl}aniline], for which the IC50 is 250 to 1000 nM. Consider `CC1(C)CCc2ncnc(N3CCOc4ccc(-c5cnc(O)c(S(=O)(=O)N6CC[C@H](N)C6)c5)cc4C3)c2C1` [Example 453, 3-{[(3S)-3-aminopyrrolidin-1-yl]sulfonyl}-5-[4-(6,6-dimethyl-5,6,7,8-tetrahydroquinazolin-4-yl)-2,3,4,5-tetrahydro-1,4-benzoxazepin-7-yl]pyridin-2-ol], for which the half-inhibitory concentration (IC50) was in the range of 50 to 250 nM.

As to `c1ccc2c(N3CCOc4ccc(-c5ccc6nc(C7CNC7)[nH]c6c5)cc4C3)ccnc2c1` [Example 201, 7-(2-azetidin-3-yl-1H-benzimidazol-6-yl)-4-quinolin-4-yl-2,3,4,5-tetrahydro-1H-benzoxazepine], the IC50 was in the range of 1000 to 2000 nM. As for `Cc1ncnc(N2CCOc3ccc(-c4cnc5nc(N)cn5c4)cc3C2)c1Cc1ccc(F)cc1` [Example 144, 6-(4-{5-[(4-fluorophenyl)methyl]-6-methylpyrimidin-4-yl}-2,3,4,5-tetrahydro-1,4-benzoxazepin-7-yl)imidazo[1,2-a]pyrimidin-2-amine], the figure is 10 to 50 nM; as for `Cc1nc2ccc(-c3ccc4c(c3)CN(c3cc(C(F)(F)F)nc5ccccc35)CCO4)cc2[nH]1` [Example 99, 7-(2-methyl-1H-benzimidazol-6-yl)-4-[2-(trifluoromethyl)quinolin-4-yl]-2,3,4,5-tetrahydro-1,4-benzoxazepine], 50 to 250 nM; as for `CC[C@H]1CCc2c(ncnc2N2CCOc3ccc(-c4cnc5nc([C@H](C)N)[nH]c5c4)cc3C2)C1` [Example 298, (1S)-1-(6-{4-[(7S)-7-ethyl-5,6,7,8-tetrahydroquinazolin-4-yl]-2,3,4,5-tetrahydro-1,4-benzoxazepin-7-yl}-1H-imidazo[4,5-b]pyridin-2-yl)ethanamine], 50 to 250 nM. As for `COc1ccc2c(N3CCOc4ccc(-c5ccc(NC(C)=O)cc5)cc4C3)nc(C)nc2c1` [Example 609, N-(4-{4-[2-methyl-7-(methyloxy)quinazolin-4-yl]-2,3,4,5-tetrahydro-1,4-benzoxazepin-7-yl}phenyl)acetamide], the figure is at least 2000 nM; as for `COc1c(Cl)cc2c(N3CCOc4ccc(-c5ccc6nc(C)[nH]c6c5)cc4C3)ncnc2c1OC` [Example 42, 4-[6-chloro-7,8-bis(methyloxy)quinazolin-4-yl]-7-(2-methyl-1H-benzimidazol-6-yl)-2,3,4,5-tetrahydro-1,4-benzoxazepine], 250 to 1000 nM; as for `CCc1ncnc(N2CCOc3ccc(-c4ccc5nc(C)[nH]c5c4)cc3C2)c1Cc1ccccc1` [Example 70, 4-[6-ethyl-5-(phenylmethyl)pyrimidin-4-yl]-7-(2-methyl-1H-benzimidazol-6-yl)-2,3,4,5-tetrahydro-1,4-benzoxazepine], at most 10 nM.

`CC1=Cc2ncnc(N3CCOc4ccc(-c5cnc(N)c(S(=O)(=O)NCC(C)(C)N)c5)cc4C3)c2CC1(C)C` [Example 405, 2-amino-N-(2-amino-2-methylpropyl)-5-[4-(6,6,7-trimethyl-5,6-dihydroquinazolin-4-yl)-2,3,4,5-tetrahydro-1,4-benzoxazepin-7-yl]pyridine-3-sulfonamide]: the IC50 was at most 10 nM.

With `COC(=O)Nc1nc2ccc(-c3ccc4c(c3)CN(c3ncnc(C)c3Cc3ccc(F)cc3)CCO4)cc2[nH]1` [Example 113, methyl [6-(4-{5-[(4-fluorophenyl)methyl]-6-methylpyrimidin-4-yl}-2,3,4,5-tetrahydro-1,4-benzoxazepin-7-yl)-1H-benzimidazol-2-yl]carbamate], the IC50 was in the range of 10 to 50 nM. On to `COc1cc2c(N3CCOc4ccc(-c5cnc6nc(N)[nH]c6c5)cc4C3)ncnc2cc1Br` [Example 184, 6-{4-[7-bromo-6-(methyloxy)quinazolin-4-yl]-2,3,4,5-tetrahydro-1,4-benzoxazepin-7-yl}-1H-imidazo[4,5-b]pyridin-2-amine], for which the IC50 was in the range of 250 to 1000 nM. In the case of `CC(C)(O)CC[S+]([O-])c1cc(-c2ccc3c(c2)CN(c2ncnc4c2CC(C)(C)CC4)CCO3)cnc1N` (stereo not shown) [Example 458, 4-({2-amino-5-[4-(6,6-dimethyl-5,6,7,8-tetrahydroquinazolin-4-yl)-2,3,4,5-tetrahydro-1,4-benzoxazepin-7-yl]pyridin-3-yl}sulfinyl)-2-methylbutan-2-ol], the concentration for half-maximal inhibition (IC50) was in the range of 50 to 250 nM. In the case of `Cc1nc2ccc(-c3ccc4c(c3)CN(c3ncnc5cc(Cl)c(I)cc35)CCO4)cc2[nH]1` [Example 35, 4-(7-chloro-6-iodoquinazolin-4-yl)-7-(2-methyl-1H-benzimidazol-6-yl)-2,3,4,5-tetrahydro-1,4-benzoxazepine], the IC50 lay in the range of 50 to 250 nM.

Regarding `COCCNS(=O)(=O)c1cc(-c2ccc3c(c2)CN(c2ncnc4c2CC(C)(C)CC4)CCO3)cnc1N` [Example 392, 2-amino-5-[4-(6,6-dimethyl-5,6,7,8-tetrahydroquinazolin-4-yl)-2,3,4,5-tetrahydro-1,4-benzoxazepin-7-yl]-N-[2-(methyloxy)ethyl]pyridine-3-sulfonamide], the 50% inhibitory concentration (IC50) lay in the range of 50 to 250 nM.

In the case of `Cc1nc2ncc(-c3ccc4c(c3)CN(c3nc(CNC(C)C)nc5c3CC(C)(C)CC5)CCO4)cc2[nH]1` [Example 607, N-({6,6-dimethyl-4-[7-(2-methyl-1H-imidazo[4,5-b]pyridin-6-yl)-2,3-dihydro-1,4-benzoxazepin-4(5H)-yl]-5,6,7,8-tetrahydroquinazolin-2-yl}methyl)propan-2-amine], the 50% inhibitory concentration (IC50) is at most 10 nM. As for `Cc1nc2ccc(-c3ccc4c(c3)CN(c3nc(CN5CC[C@@H](F)C5)nc5c3CC(C)(C)CC5)CCO4)cc2[nH]1` [Example 461], the figure is 50 to 250 nM; as for `Cc1nc2ncc(-c3ccc4c(c3)CN(c3ncnc(C)c3CC3CC3)CCO4)cc2[nH]1` [Example 493, 4-[5-(cyclopropylmethyl)-6-methylpyrimidin-4-yl]-7-(2-methyl-1H-imidazo[4,5-b]pyridin-6-yl)-2,3,4,5-tetrahydro-1,4-benzoxazepine], 10 to 50 nM.

Take `Cc1nc2cc(-c3ccc4c(c3)CN(c3nc([C@H]5CCCN5)nc5c3CC(C)(C)CC5)CCO4)cnc2[nH]1` [Example 506, 4-{6,6-dimethyl-2-[(2R)-pyrrolidin-2-yl]-5,6,7,8-tetrahydroquinazolin-4-yl]-7-(2-methyl-3H-imidazo[4,5-b]pyridin-6-yl)-2,3,4,5-tetrahydro-1,4-benzoxazepine]: the IC50 was at most 10 nM. For `C[C@H](CO)CS(=O)(=O)c1cc(-c2ccc3c(c2)CN(c2ncnc4c2CC(C)(C)CC4)CCO3)cnc1N` [Example 299, (2R)-3-({2-amino-5-[4-(6,6-dimethyl-5,6,7,8-tetrahydroquinazolin-4-yl)-2,3,4,5-tetrahydro-1,4-benzoxazepin-7-yl]pyridin-3-yl}sulfonyl)-2-methylpropan-1-ol], the IC50 is 10 to 50 nM. Regarding `COc1cc2c(N3CCOc4ccc(-c5ccc6nc(C)[nH]c6c5)cc4C3)ncnc2cc1Br` [Example 31, 4-[7-bromo-6-(methyloxy)quinazolin-4-yl]-7-(2-methyl-1H-benzimidazol-6-yl)-2,3,4,5-tetrahydro-1,4-benzoxazepine], the half-inhibitory concentration (IC50) was in the range of 250 to 1000 nM.
